From patent US10512632B2, “1 H-pyrazolo[4,3-B]pyridines as PDE1 inhibitors” (priority 2016, dated 2019)

Key:
PDE1A = PDE1A (Homo sapiens (Human), UniProt P54750); experiment: PDE1 inhibition assay (PDE1A), SPA with tritium labelled cAMP; assay type: biochemical; conditions: 15 nM tritium labelled cAMP, 1 hr at room temperature
From the text: (§1) Table 1 lists the IC50 value for inhibition of PDE1 by the compounds of the invention. […] PDE1 assays are described in the Experimental Section.

PDE1B = PDE1B (Homo sapiens (Human), UniProt Q01064); experiment: PDE1 inhibition assay (PDE1B), SPA with tritium labelled cAMP; assay type: biochemical; conditions: 15 nM tritium labelled cAMP, 1 hr at room temperature
From the text: as §1

Chain of PDE1A (P54750 whole entry): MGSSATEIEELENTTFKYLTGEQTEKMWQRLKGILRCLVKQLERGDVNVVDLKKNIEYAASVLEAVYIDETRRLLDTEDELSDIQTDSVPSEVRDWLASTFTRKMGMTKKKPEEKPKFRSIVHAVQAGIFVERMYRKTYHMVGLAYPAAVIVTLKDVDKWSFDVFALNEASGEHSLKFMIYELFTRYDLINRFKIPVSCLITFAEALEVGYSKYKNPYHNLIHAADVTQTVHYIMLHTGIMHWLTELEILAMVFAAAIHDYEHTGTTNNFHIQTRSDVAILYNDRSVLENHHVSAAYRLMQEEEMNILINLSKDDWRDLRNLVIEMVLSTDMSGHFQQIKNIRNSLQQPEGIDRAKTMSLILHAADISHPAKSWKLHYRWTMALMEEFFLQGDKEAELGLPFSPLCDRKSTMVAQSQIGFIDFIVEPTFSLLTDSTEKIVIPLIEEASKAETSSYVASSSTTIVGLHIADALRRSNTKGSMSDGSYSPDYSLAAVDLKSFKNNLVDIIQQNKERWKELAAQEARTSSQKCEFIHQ
Chain of PDE1B (Q01064 whole entry): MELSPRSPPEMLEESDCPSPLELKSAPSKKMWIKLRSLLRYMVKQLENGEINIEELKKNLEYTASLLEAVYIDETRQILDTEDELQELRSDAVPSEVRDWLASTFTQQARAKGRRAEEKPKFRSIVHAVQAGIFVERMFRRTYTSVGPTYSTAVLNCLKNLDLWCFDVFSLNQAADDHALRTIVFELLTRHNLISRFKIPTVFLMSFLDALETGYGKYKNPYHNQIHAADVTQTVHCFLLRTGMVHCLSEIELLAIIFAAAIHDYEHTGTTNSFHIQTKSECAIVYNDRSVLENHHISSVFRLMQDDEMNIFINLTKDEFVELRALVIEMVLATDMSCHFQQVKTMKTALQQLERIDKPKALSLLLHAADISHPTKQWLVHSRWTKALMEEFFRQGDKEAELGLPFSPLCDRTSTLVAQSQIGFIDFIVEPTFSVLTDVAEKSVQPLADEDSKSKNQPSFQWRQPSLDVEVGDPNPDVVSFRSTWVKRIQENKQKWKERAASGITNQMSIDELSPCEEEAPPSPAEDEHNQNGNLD

**Q.** What does the source list for `CCOc1ncccc1-c1cc(NCc2ccncc2OC)c2c(n1)c(C)nn2C(C)C` [Example 172, 5-(2-ethoxy-3-pyridyl)-1-isopropyl-N-[(3-methoxy-4-pyridyl)methyl]-3-methyl-pyrazolo[4,3-b]pyridin-7-amine]?
**A.** IC50 (PDE1A): 40 nM; IC50 (PDE1B): 5.5 nM
